Measurements published in patent US20070025902A1, “RECOVERY OF FLUORINATED CARBOXYLIC ACID FROM ADSORBENT PARTICLES” (priority 2005, published 2007).
Marks after values point to notes of the source that are not given here.

Test: Determination of bio-accumulation: urinary clearance pharmacokinetic study in rats
Conditions: oral gavage; for Compound-related Effects: clinical signs of toxicity and gross necropsy 96 hours post-dose
[1] = parent compound recovered in urine after 96 h, 73 micro Moles per kg body weight
[2] = renal elimination half-life of parent compound from urine, 73 micro Moles per kg body weight, exponential least squares curve fitting
[3] = 73 micro Moles per kg body weight
[4] = no parent compound in urine, based on elimination of the major metabolite C3F7—O—CHFCOO−, 73 micro Moles per kg

% Recovery (96 h) [1] [%] | T½ [2] [h] | % Recovery (96 h) [4] | T½ (h) [4] | SMILES | Compound-related Effects [3] | T½ (h) [2]
73 |  |  |  | N.O=C(O)C(F)(F)OC(F)(F)C(F)(F)C(F)(F)OC(F)(F)F [Compound 1, CF3—O—(CF2)3—O—CF2—COONH4] |  | 
96 | 12 |  |  | N.O=C(O)C(F)(F)OC(F)(F)OC(F)(F)F [Compound 2, CF3—OCF2—O—CF2—COONH4] |  | 
50 |  |  |  | N.O=C(O)C(F)(F)OC(F)(F)C(F)(F)C(F)(F)OC(F)(F)F [Compound 4, CF3—(OCF2)3—OCF2—COONH4] |  | 
97 | 11 |  |  | N.O=C(O)C(F)(F)OC(F)(F)C(F)(F)C(F)(F)F [Compound 5, C3F7—O—CF2—COONH4] |  | 
100 | 10 |  |  | N.O=C(O)C(F)(F)C(F)(F)OC(F)(F)C(F)(F)F [Compound 7, C2F5—O—CF2—CF2—COONH4] |  | 
82 | 12 |  |  | N.O=C(O)C(F)(F)C(F)(F)OC(F)(F)C(F)(F)C(F)(F)F [Compound 8, C3F7—O—CF2—CF2—COONH4] |  | 
42 | 31 |  |  | N.O=C(O)C(F)(F)C(F)(F)OC(F)(F)C(F)(F)C(F)(F)C(F)(F)F [Compound 9, C4F9—O—CF2—CF2—COONH4] | Hepatomegaly | 
84 | 12 |  |  | N.O=C(O)C(F)(F)C(F)OC(F)(F)C(F)(F)C(F)(F)OC(F)(F)F (centres unmarked) [Compound 11, CF3—O—CF2—CF2—CF2—O—CHF—CF2—COONH4] |  | 
95 | 11 |  |  | N.O=C(O)C(F)OC(F)(F)C(F)(F)C(F)(F)OC(F)(F)F (centres unmarked) [Compound 12, CF3—O—CF2—CF2—CF2—O—CHF—COONH4] |  | 
94 | 11 |  |  | N.O=C(O)C(F)(F)C(F)OC(F)(F)C(F)(F)C(F)(F)F (centres unmarked) [Compound 13, C3F7—O—CFH—CF2COONH4] |  | 
32 | 24 |  |  | N.O=C(O)C(F)(F)C(F)(F)C(F)(F)C(F)(F)C(F)(F)OC(F)C(F)(F)F (centres unmarked) [Compound 14, CF3—CFH—O—(CF2)5—COONH4] | Hepatomegaly | 
95 | 8 |  |  | N.O=C(O)C(F)(F)C(F)(F)C(F)(F)OC(F)C(F)(F)F (centres unmarked) [Compound 15, CF3—CFH—O—(CF2)3—COONH4] |  | 
 |  | 65* % | 13* h | N.O=C(O)COC(F)(F)C(F)OC(F)(F)C(F)(F)C(F)(F)F (centres unmarked) [Compound 16, C3F7—O—CFH—CF2—O—CH2—COONH4] |  | 
5 | 95 |  |  | N.O=C(O)C(F)(F)OC(F)(F)C(F)(OC(F)(F)C(F)(F)C(F)(F)F)C(F)(F)F (centres unmarked) [Compound C-3, CF3CF2CF2OCF(CF3)CF2OCF2COONH4, reference compound] | Hepatomegaly | 

SMILES | % Recovery (96 h) [1] [%] | T½ [2] [h] | % Recovery (96 h) [4] | T½ (h) [4] | Compound-related Effects [3] | T½ (h) [2]
N.O=C(O)C(F)(F)OC(F)(F)OC(F)(F)OC(F)(F)F [Compound 3, CF3—OCF2—OCF2—OCF2—COONH4] | 100 | 12 |  |  |  | 
N.O=C(O)C(F)(F)C(F)(F)OC(F)(F)F [Compound 6, CF3—O—CF2—CF2—COONH4] | 100 | 11 |  |  |  | 
N.O=C(O)C(F)(F)OC(F)(F)C(F)(F)OC(F)(F)C(F)(F)F [Compound 10, C2F5—O—CF2—CF2—O—CF2—COONH4] | 99 | 10 |  |  |  | 
N.O=C(O)C(F)(F)C(F)(F)C(F)(F)C(F)(F)C(F)(F)C(F)(F)C(F)(F)F [Compound C-1, C7F15COONH4, reference compound] | 6 |  |  |  | Hepatomegaly | ˜550 h
